Experimental findings from ChEMBL document CHEMBL1933034, “Synthesis, docking and in vitro antimalarial evaluation of bifunctional hybrids derived from β-lactams and 7-chloroquinoline using click chemistry” (Bioorg Med Chem Lett, 2012) are described below.

Each structure is given as a SMILES string. Some results are limits rather than exact numbers.

This experiment relates to Plasmodium falciparum. The experiment is described as follows: Antimalarial activity against chloroquine-resistant ring stage of Plasmodium falciparum W2 infected in human erythrocytes assessed as inhibition of parasitemia after 48 hrs by FACS analysis. It counts as functional, organism-based. The settings on record: W2, 48 h. (In general: In flow cytometry, cells or beads pass a laser one at a time.)
The IC50 is the concentration that gives 50% inhibition. In the case of `Cc1ccc(N2C(=O)[C@@H](NCc3cn(-c4ccnc5cc(Cl)ccc45)nn3)[C@H]2/C=C/c2ccccc2)cc1`, the IC50 is more than 10000 nM.

For the molecule `O=C1[C@@H](NCc2cn(-c3ccnc4cc(Cl)ccc34)nn2)[C@@H](/C=C/c2ccccc2)N1c1ccccc1`, the IC50 came to 1900 nM.

For the molecule `O=C1[C@@H](NCc2cn(-c3ccnc4cc(Cl)ccc34)nn2)[C@@H](/C=C/c2ccccc2)N1c1ccc(F)cc1`, the IC50 was more than 10000 nM.

Turning to `O=C1[C@@H](NCc2cn(-c3ccnc4cc(Cl)ccc34)nn2)[C@@H](/C=C/c2ccccc2)N1C1CCCCC1`, the IC50 was 4300 nM.

Consider `O=C1[C@@H](NCc2cn(-c3ccnc4cc(Cl)ccc34)nn2)[C@@H](/C=C/c2ccccc2)N1Cc1ccccc1`, for which the IC50 worked out at 5900 nM.

For `Cc1ccc(N2C(=O)[C@@H](N(Cc3cn(-c4ccnc5cc(Cl)ccc45)nn3)Cc3cn(-c4ccnc5cc(Cl)ccc45)nn3)[C@H]2/C=C/c2ccccc2)cc1`, the IC50 is 1500 nM.

For `O=C1[C@@H](N(Cc2cn(-c3ccnc4cc(Cl)ccc34)nn2)Cc2cn(-c3ccnc4cc(Cl)ccc34)nn2)[C@@H](/C=C/c2ccccc2)N1c1ccccc1`, the IC50 turned out to be 2100 nM.

Take `O=C1[C@@H](N(Cc2cn(-c3ccnc4cc(Cl)ccc34)nn2)Cc2cn(-c3ccnc4cc(Cl)ccc34)nn2)[C@@H](/C=C/c2ccccc2)N1c1ccc(F)cc1`: the IC50 came out at 1100 nM.

Take `O=C1[C@@H](N(Cc2cn(-c3ccnc4cc(Cl)ccc34)nn2)Cc2cn(-c3ccnc4cc(Cl)ccc34)nn2)[C@@H](/C=C/c2ccccc2)N1C1CCCCC1`: the IC50 was 2800 nM.

As for `O=C1[C@@H](N(Cc2cn(-c3ccnc4cc(Cl)ccc34)nn2)Cc2cn(-c3ccnc4cc(Cl)ccc34)nn2)[C@@H](/C=C/c2ccccc2)N1Cc1ccccc1`, the IC50 was 2700 nM.
